# Several values for one entry are separate records, joined by “and”; a condition that tells them apart may be missing. Identical values can stand only once. ± gives the uncertainty stated by the source.
# Assay: xn = mol fraction of the nth substance listed
smiles,measurement,setting,value
CCCCCCCC(=O)[O-].CCCCCC[NH+](CCCCCC)CCCCCC + O,viscosity,"298.15 K, 101 kPa, x1 = 0.3915",15.08 ± 0.61 mPa·s and 15.76 ± 0.63 mPa·s
same,viscosity,"298.15 K, 101 kPa, x1 = 0.7748",20.5 ± 0.85 mPa·s and 21.52 ± 0.9 mPa·s
CCCC[n+]1ccn(C)c1.O=S(=O)([N-]S(=O)(=O)C(F)(F)F)C(F)(F)F + c1ccsc1,viscosity,"328.15 K, 100 kPa, x2 = 0",17.98 ± 0.96 mPa·s
CCCC[n+]1ccn(C)c1.O=S(=O)([N-]S(=O)(=O)C(F)(F)F)C(F)(F)F + OCC(F)(F)F,viscosity,"283.15 K, 101 kPa, x2 = 0",107 ± 2 mPa·s
CCCC[n+]1ccn(C)c1.F[P-](F)(F)(F)(F)F + O,viscosity,"293.15 K, 100 kPa, x1 = 0.0001838",1.011 ± 0.041 mPa·s
same,viscosity,"293.15 K, 100 kPa, x1 = 0.0005385",1.025 ± 0.042 mPa·s
same,viscosity,"293.15 K, 100 kPa, x1 = 0.0008966",1.038 ± 0.043 mPa·s
same,viscosity,"293.15 K, 100 kPa, x1 = 0.001262",1.041 ± 0.043 mPa·s
same,electrical conductivity,"293.2 K, 101 kPa, frequency 6e-05 MHz, x2 = 0.1",0.199 ± 0.002 S/m
same,viscosity,"298.15 K, 100 kPa, x1 = 0.0001838",0.905 ± 0.037 mPa·s
same,viscosity,"298.15 K, 100 kPa, x1 = 0.0005385",0.916 ± 0.038 mPa·s
same,viscosity,"298.15 K, 100 kPa, x1 = 0.0008966",0.922 ± 0.038 mPa·s
same,viscosity,"298.15 K, 100 kPa, x1 = 0.001262",0.932 ± 0.038 mPa·s
same,viscosity,"298.15 K, 101 kPa, x1 = 0.00129",0.929 ± 0.034 mPa·s
same,electrical conductivity,"298.15 K, 101 kPa, x2 = 0",0.157 ± 0.019 S/m
same,viscosity,"298.15 K, 101 kPa, x2 = 0",260 ± 180 mPa·s
same,electrical conductivity,"298.15 K, 101 kPa, x2 = 0.0518",0.197 ± 0.024 S/m
same,viscosity,"298.15 K, 101 kPa, x2 = 0.0518",200 ± 110 mPa·s
same,electrical conductivity,"298.15 K, 101 kPa, x2 = 0.0985",0.235 ± 0.028 S/m
same,viscosity,"298.15 K, 101 kPa, x2 = 0.0985",154 ± 71 mPa·s
same,electrical conductivity,"298.15 K, 101 kPa, x2 = 0.1409",0.281 ± 0.034 S/m
same,viscosity,"298.15 K, 101 kPa, x2 = 0.1409",127 ± 49 mPa·s
same,electrical conductivity,"298.15 K, 101 kPa, x2 = 0.1794",0.334 ± 0.04 S/m
same,viscosity,"298.15 K, 101 kPa, x2 = 0.1794",109 ± 35 mPa·s
same,electrical conductivity,"298.15 K, 101 kPa, x2 = 0.2146",0.383 ± 0.046 S/m
same,viscosity,"298.15 K, 101 kPa, x2 = 0.2146",92 ± 24 mPa·s
same,electrical conductivity,"298.2 K, 101 kPa, frequency 6e-05 MHz, x2 = 0.05",0.231 ± 0.002 S/m
same,electrical conductivity,"298.2 K, 101 kPa, frequency 6e-05 MHz, x2 = 0.15",0.361 ± 0.004 S/m
same,viscosity,"303.15 K, 100 kPa, x1 = 0.0001838",0.821 ± 0.034 mPa·s
same,viscosity,"303.15 K, 100 kPa, x1 = 0.0005385",0.826 ± 0.034 mPa·s
same,viscosity,"303.15 K, 100 kPa, x1 = 0.001262",0.843 ± 0.035 mPa·s
same,viscosity,"308.15 K, 100 kPa, x1 = 0.0001838",0.742 ± 0.03 mPa·s
same,viscosity,"308.15 K, 100 kPa, x1 = 0.0005385",0.744 ± 0.031 mPa·s
same,viscosity,"308.15 K, 100 kPa, x1 = 0.0008966",0.75 ± 0.031 mPa·s
same,viscosity,"308.15 K, 100 kPa, x1 = 0.001262",0.761 ± 0.031 mPa·s
same,electrical conductivity,"308.2 K, 101 kPa, frequency 6e-05 MHz, x2 = 0.1",0.401 ± 0.004 S/m
same,electrical conductivity,"308.2 K, 101 kPa, frequency 6e-05 MHz, x2 = 0.2",0.546 ± 0.006 S/m
same,viscosity,"313.15 K, 100 kPa, x1 = 0.0001838",0.661 ± 0.027 mPa·s
same,viscosity,"313.15 K, 100 kPa, x1 = 0.0005385",0.674 ± 0.028 mPa·s
same,viscosity,"313.15 K, 100 kPa, x1 = 0.0008966",0.677 ± 0.028 mPa·s
same,viscosity,"313.15 K, 100 kPa, x1 = 0.001262",0.683 ± 0.028 mPa·s
same,electrical conductivity,"313.2 K, 101 kPa, frequency 6e-05 MHz, x2 = 0.15",0.561 ± 0.006 S/m
same,electrical conductivity,"318.2 K, 101 kPa, frequency 6e-05 MHz, x2 = 0.05",0.491 ± 0.005 S/m
same,electrical conductivity,"318.2 K, 101 kPa, frequency 6e-05 MHz, x2 = 0.2",0.775 ± 0.008 S/m
same,electrical conductivity,"323.2 K, 101 kPa, frequency 6e-05 MHz, x2 = 0.1",0.678 ± 0.007 S/m
same,electrical conductivity,"333.2 K, 101 kPa, frequency 6e-05 MHz, x2 = 0.2",1.06 ± 0.011 S/m
same,electrical conductivity,"343.2 K, 101 kPa, frequency 6e-05 MHz, x2 = 0.15",1.06 ± 0.011 S/m
same,electrical conductivity,"353.2 K, 101 kPa, frequency 6e-05 MHz, x2 = 0.15",1.405 ± 0.014 S/m
same,electrical conductivity,"353.2 K, 101 kPa, frequency 6e-05 MHz, x2 = 0.2",1.621 ± 0.016 S/m
CC[n+]1ccn(C)c1.O=S(=O)([O-])O + OCCO,viscosity,"303.15 K, 100 kPa, x1 = 0.125",15 ± 1 mPa·s
same,viscosity,"303.15 K, 100 kPa, x1 = 0.5",76 ± 4 mPa·s
same,viscosity,"308.15 K, 100 kPa, x1 = 0.25",24 ± 1 mPa·s
same,viscosity,"313.15 K, 100 kPa, x1 = 0.143",12 ± 1 mPa·s
same,viscosity,"313.15 K, 100 kPa, x1 = 0.33",30 ± 1 mPa·s
same,viscosity,"318.15 K, 100 kPa, x1 = 0.167",12 ± 1 mPa·s
same,viscosity,"323.15 K, 100 kPa, x1 = 0.33",21 ± 1 mPa·s
CCCC[n+]1ccccc1.[Cl-] + CC[n+]1ccccc1.[Br-],viscosity,"388.1 K, 101 kPa, x2 = 0.484",30 ± 1.9 mPa·s
same,viscosity,"388.1 K, 101 kPa, x2 = 0.694",23.1 ± 1.3 mPa·s
same,viscosity,"393.1 K, 101 kPa, x2 = 0.64",21.6 ± 1.2 mPa·s
same,viscosity,"393.1 K, 101 kPa, x2 = 0.797",18.11 ± 0.92 mPa·s
same,viscosity,"403.1 K, 101 kPa, x2 = 0.408",21.2 ± 1.3 mPa·s
same,viscosity,"403.1 K, 101 kPa, x2 = 0.604",17.39 ± 0.95 mPa·s
same,viscosity,"408.1 K, 101 kPa, x2 = 0.64",14.86 ± 0.78 mPa·s
same,viscosity,"408.1 K, 101 kPa, x2 = 0.797",12.97 ± 0.62 mPa·s
same,viscosity,"413.1 K, 101 kPa, x2 = 0.193",19.5 ± 1.2 mPa·s
same,viscosity,"413.1 K, 101 kPa, x2 = 0.64",13.22 ± 0.67 mPa·s
same,viscosity,"413.1 K, 101 kPa, x2 = 0.694",12.73 ± 0.62 mPa·s
same,viscosity,"413.1 K, 101 kPa, x2 = 0.797",11.67 ± 0.55 mPa·s
same,viscosity,"418.1 K, 101 kPa, x2 = 0.104",18.3 ± 1.1 mPa·s
same,viscosity,"418.1 K, 101 kPa, x2 = 0.64",11.81 ± 0.58 mPa·s
same,viscosity,"418.1 K, 101 kPa, x2 = 0.694",11.42 ± 0.55 mPa·s
same,viscosity,"423.1 K, 101 kPa, x2 = 0.313",13.73 ± 0.72 mPa·s
same,viscosity,"423.1 K, 101 kPa, x2 = 0.797",9.52 ± 0.43 mPa·s
same,viscosity,"423.1 K, 101 kPa, x2 = 0.894",8.8 ± 0.39 mPa·s
same,viscosity,"428.1 K, 101 kPa, x2 = 0.313",12.22 ± 0.61 mPa·s
same,viscosity,"428.1 K, 101 kPa, x2 = 0.604",9.82 ± 0.46 mPa·s
same,viscosity,"428.1 K, 101 kPa, x2 = 0.694",9.28 ± 0.42 mPa·s
same,viscosity,"433.1 K, 101 kPa, x2 = 0.484",9.72 ± 0.45 mPa·s
same,viscosity,"433.1 K, 101 kPa, x2 = 0.64",8.61 ± 0.39 mPa·s
same,viscosity,"438.1 K, 101 kPa, x2 = 0.604",8.04 ± 0.35 mPa·s
same,viscosity,"438.1 K, 101 kPa, x2 = 0.894",6.68 ± 0.28 mPa·s
same,viscosity,"443.1 K, 101 kPa, x2 = 0.64",7.11 ± 0.3 mPa·s
same,viscosity,"443.1 K, 101 kPa, x2 = 0.797",6.56 ± 0.29 mPa·s
CCCC[n+]1ccn(C)c1.F[P-](F)(F)(F)(F)F + C1CCOC1,viscosity,"298.15 K, 101 kPa, x2 = 0.195",91 ± 15 mPa·s
CCCCCCO + CCCC[n+]1ccn(C)c1.N#C[S-],viscosity,"308.15 K, 101 kPa, x1 = 1",3.33 ± 0.01 mPa·s
same,viscosity,"338.15 K, 101 kPa, x1 = 1",1.57 ± 0.01 mPa·s
CCCC[n+]1ccn(C)c1.O=S(=O)([N-]S(=O)(=O)C(F)(F)F)C(F)(F)F + CC1CC(=O)O1,electrical conductivity,"293.15 K, 100 kPa, frequency 0.01 MHz, x1 = 1",0.337 ± 0.013 S/m
same,electrical conductivity,"298.15 K, 100 kPa, frequency 0.01 MHz, x1 = 1",0.4 ± 0.016 S/m
same,electrical conductivity,"303.15 K, 100 kPa, frequency 0.01 MHz, x1 = 1",0.472 ± 0.019 S/m
same,electrical conductivity,"308.15 K, 100 kPa, frequency 0.01 MHz, x1 = 1",0.552 ± 0.022 S/m
same,electrical conductivity,"313.15 K, 100 kPa, frequency 0.01 MHz, x1 = 1",0.64 ± 0.026 S/m
same,electrical conductivity,"318.15 K, 100 kPa, frequency 0.01 MHz, x1 = 1",0.733 ± 0.029 S/m
same,electrical conductivity,"323.15 K, 100 kPa, frequency 0.01 MHz, x1 = 1",0.835 ± 0.033 S/m
CCCC[n+]1ccn(C)c1.F[P-](F)(F)(F)(F)F + CCCC[n+]1ccn(C)c1.O=S(=O)([O-])C(F)(F)F,viscosity,"318.15 K, 100 kPa, x1 = 1",87.7 ± 2.4 mPa·s

# Reference: the CheMixHub ionic liquid set
